Literature values as cited in US6106863A, “Sustained-release metal valproate tablets” (priority 1996, dated 2000).

Key:
[1] = in vivo

CCCC(CCC)C(=O)[O-].[Na+] [Sodium valproate]
water solubility (in words): water-soluble | biological half-life (in words) [1]: short biological half-life | effective blood concentration [1]: 50 to 100 µg/mL
